Assay results reported in patent US7511065B2, “Mixed lineage kinase modulators” (Eli Lilly and Company, priority 2002, dated 2009).

biological target: T1, MLK-7 (Homo sapiens, UniProt Q9NYL2); test: In vitro assay of purified MLK-7 kinase activity (33P transfer from ATP to myelin basic protein); assay type: biochemical; settings: recombinant GST-tagged MLK-7 at 1 nm, 30 uM ATP, 5 uM MBP substrate, 2 hours room temperature; read-out: MLK7 IC50
T1 construct: GST; His tag; made in house; host or cells: Sf9 insect cells (baculovirus, pVL1392)
T1 sequence (Q9NYL2 1-455 isoform Q9NYL2-2): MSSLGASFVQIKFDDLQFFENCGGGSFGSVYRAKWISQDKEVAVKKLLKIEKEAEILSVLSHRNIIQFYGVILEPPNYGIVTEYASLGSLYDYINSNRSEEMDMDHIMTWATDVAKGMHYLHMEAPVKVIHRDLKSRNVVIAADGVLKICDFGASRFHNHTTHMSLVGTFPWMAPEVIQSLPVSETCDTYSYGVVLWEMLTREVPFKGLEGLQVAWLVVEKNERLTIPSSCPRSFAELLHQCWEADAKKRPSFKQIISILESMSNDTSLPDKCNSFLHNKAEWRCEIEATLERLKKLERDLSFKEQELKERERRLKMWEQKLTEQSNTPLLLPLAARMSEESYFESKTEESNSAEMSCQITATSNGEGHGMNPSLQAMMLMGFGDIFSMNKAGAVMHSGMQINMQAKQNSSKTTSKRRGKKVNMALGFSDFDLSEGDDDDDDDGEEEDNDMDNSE
Method in brief: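 GST/His-tagged MLK-7 from Sf9 (baculovirus), 1 nM, with 5 uM MBP, 30 uM ATP plus 33P, 5 mM MgCl2, 2 mM DTT, 4% DMSO in 44 mM HEPES pH 7.4; 2 h at room temperature, stopped with phosphoric acid. Filter-bound 33P counted; IC50 for reduced phosphate transfer, Ki via Cheng-Prusoff.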

IC50, ≤ 100 nM:
c1ccc(-c2nn3c(c2-c2ccnc4cc(-c5ccc(OCCN6CCOCC6)cc5)ccc24)CCC3)nc1 [Example 109, 7-[4-(2-Morpholin-4-yl-ethoxy)phenyl]-4-(2-Pyridin-2-yl-5,6-dihydro-4H-pyrrolo[1,2-b]pyrazol-3-yl)quinoline Ditrifluoroacetic Acid]
c1ccc(-c2nn3c(c2-c2ccnc4cc(-c5ccoc5)ccc24)CCC3)nc1 [Example 51, 7-Furan-3-yl-4-(2-pyridin-2-yl-5,6-dihydro-4H-pyrrolo[1,2-b]pyrazol-3-yl)quinoline Trifluoroacetic Acid]
Nc1ccc(-c2ccc3c(-c4c(-c5ccccn5)nn5c4CCC5)ccnc3c2)cc1F [Example 78, 2-Fluoro-4-[4-(2-pyridin-2-yl-5,6-dihydro-4H-pyrrolo[1,2-b]pyrazol-3-yl)quinolin-7-yl]phenylamine Ditrifluoroacetic Acid]
c1ccc(-c2ccc3c(-c4c(-c5ccccn5)nn5c4CCC5)ccnc3c2)cc1 [Example 4, 7-Phenyl-4-(2-pyridin-2-yl-5,6-dihydro-4H-pyrrolo[1,2-b]pyrazol-3-yl)quinoline Trifluoroacetic Acid]
OCCOc1ccc(-c2ccc3c(-c4c(-c5ccccn5)nn5c4CCC5)ccnc3c2)cc1 [Example 73, 2-{4-[4-(2-Pyridin-2-yl-5,6-dihydro-4H-pyrrolo[1,2-b]pyrazol-3-yl)quinolin-yl]phenoxy}ethanol Trifluoroacetic Acid]
CC(C)(C)OC(=O)CCNC(=O)c1ccc(-c2ccc3c(-c4c(-c5ccccn5)nn5c4CCC5)ccnc3c2)cc1 [Example 137, 3-{4-[4-(2-Pyridin-2-yl-5,6-dihydro-4H-pyrrolo[1,2-b]pyrazol-3-yl)-quinolin-7-yl]-benzoylamino}-propionic Acid tert-Butyl Ester]
Nc1cccc(-c2ccc3c(-c4c(-c5ccccn5)nn5c4CCC5)ccnc3c2)c1 [Example 9]
COC(=O)CCc1ccc(-c2ccc3c(-c4c(-c5ccccn5)nn5c4CCC5)ccnc3c2)cc1 [Example 106, 3-{4-[4-(2-pyridin-2-yl-5,6-dihydro-4H-pyrrolo[1,2-b]pyrazol-3-yl-)quinolin-7-yl]phenyl}propionic Acid Methyl Ester]
